According to ChEMBL document CHEMBL1201862, “PubChem BioAssay data set” (2004):
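Grown in 96-well plates, cells were treated for 48 hours with each compound at five concentrations. Insufficient inhibition: endpoint recorded as highest concentration tested. GI50 = concentration required for 50% inhibition of growth.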 Active and inactive are the calls of the source. Cut-off read from the data, not from the text of the source: active = GI50 up to about 1.1 µM and inactive = higher.

Assays:
Experiment in all cases: inhibition of tumour cell growth, NCI panel, 48 h
A498 = test system: A498
PC-3 = test system: PC-3
SF-539 = test system: SF-539
U-251 = test system: U-251
UACC-62 = test system: UACC-62
EKVX = test system: EKVX
NCI-H23 = test system: NCI-H23
OVCAR-5 = test system: OVCAR-5
Hs-578T = test system: Hs-578T
SK-MEL-5 = test system: SK-MEL-5
COLO 205 = test system: COLO 205
SNB-19 = test system: SNB-19
M14 = test system: M14
Malme-3M = test system: Malme-3M
SK-OV-3 = test system: SK-OV-3
NCI-H522 = test system: NCI-H522
UACC-257 = test system: UACC-257
SK-MEL-28 = test system: SK-MEL-28
HCT-15 = test system: HCT-15
MCF7 = test system: MCF7

Compound | GI50 (A498) | GI50 (PC-3) | GI50 (SF-539) | GI50 (U-251) | GI50 (UACC-62) | GI50 (EKVX) | GI50 (NCI-H23) | GI50 (OVCAR-5) | GI50 (Hs-578T) | GI50 (SK-MEL-5) | GI50 (COLO 205) | GI50 (SNB-19) | GI50 (M14) | GI50 (Malme-3M) | GI50 (SK-OV-3) | GI50 (NCI-H522) | GI50 (UACC-257) | GI50 (SK-MEL-28) | GI50 (HCT-15) | GI50 (MCF7)
CN(C)CC1CC/C(=C\c2ccc(O)cc2)C1=O (stereo not given) | 9.35 µM (inactive) | 9.08 µM (inactive) | 7.8 µM (inactive) | 6.71 µM (inactive) | 6.12 µM (inactive) | 4.83 µM (inactive) | 6.67 µM (inactive) | 17.4 µM (inactive) | 7.11 µM (inactive) | 8.28 µM (inactive) | 1.87 µM (inactive) | 16.9 µM (inactive) | 2.14 µM (inactive) | 2.94 µM (inactive) | 18.4 µM (inactive) | 1.47 µM (inactive) | 3.94 µM (inactive) | 2.48 µM (inactive) | 2.21 µM | 1.66 µM (inactive)
C#C/C=C/CC1OC(C(Br)CC)CC(Br)C2CC1O2 (stereo not given) | > 100 µM (inactive) | 45.6 µM (inactive) | > 100 µM (inactive) | 78 µM (inactive) | 56.2 µM (inactive) | 40.6 µM (inactive) | > 100 µM (inactive) | > 100 µM (inactive) | 87.9 µM (inactive) | 89.3 µM (inactive) | 82 µM (inactive) | > 100 µM (inactive) | > 100 µM (inactive) | 11.3 µM (inactive) | 40.9 µM (inactive) | 2.58 µM (inactive) | > 100 µM (inactive) | 42.1 µM (inactive) | 40.7 µM | 40.2 µM (inactive)
CCOC(=O)c1ccc(NC(=O)O/N=C(/Cl)C(C)C)cc1 | 14.7 µM (inactive) | 20.4 µM (inactive) | 18.6 µM (inactive) | 19.1 µM (inactive) | 18.9 µM (inactive) | 14.9 µM (inactive) | 20 µM (inactive) | 17.6 µM (inactive) | 29.5 µM (inactive) | 16.1 µM (inactive) | 2.42 µM (inactive) | 24 µM (inactive) | 1.16 µM (inactive) | 3.76 µM (inactive) | 18.9 µM (inactive) | 2.07 µM (inactive) | 16.9 µM (inactive) | 16.2 µM (inactive) | 8.59 µM | 1.98 µM (inactive)
CC1(C)CC[C@]2(C(=O)O)CC[C@]3(C)C(=CCC4=C5C[C@H](O)[C@H](O)[C@@](C)(CO)[C@@]5(C)CC[C@]43C)[C@@H]2C1 | 17.8 µM (inactive) | 59.3 µM (inactive) | 56.9 µM (inactive) | 48.2 µM (inactive) | 46 µM (inactive) | 51.5 µM (inactive) | 37.9 µM (inactive) | > 100 µM (inactive) | 39.9 µM (inactive) | 22.9 µM (inactive) | 15.2 µM (inactive) | 16 µM (inactive) | 66.2 µM (inactive) | 69.2 µM (inactive) | > 100 µM (inactive) | 46.2 µM (inactive) | 71 µM (inactive) | > 100 µM (inactive) | 38.9 µM | 44.6 µM (inactive)
COc1ccc2c(c1)OC(c1cccnc1)C(c1ccccc1)C2=O (stereo not given) | > 100 µM (inactive) | > 100 µM (inactive) | > 100 µM (inactive) | 43.8 µM (inactive) | > 100 µM (inactive) | > 100 µM (inactive) | > 100 µM (inactive) | > 100 µM (inactive) | 54 µM (inactive) | > 100 µM (inactive) | > 100 µM (inactive) | 66.7 µM (inactive) | > 100 µM (inactive) | > 100 µM (inactive) | 59.4 µM (inactive) | > 100 µM (inactive) | > 100 µM (inactive) | > 100 µM (inactive) | > 100 µM | > 100 µM (inactive)
O=[N+]([O-])c1cccc(Cl)c1Oc1ccc(S(=O)(=O)N/C(=N\O)Nc2ccc(Cl)cc2)cc1 | 14.2 µM (inactive) | 11.5 µM (inactive) | 14.6 µM (inactive) | 13.6 µM (inactive) | 12.7 µM (inactive) | 12.2 µM (inactive) | 15.5 µM (inactive) | 17 µM (inactive) | 5.79 µM (inactive) | 11.9 µM (inactive) | 17.1 µM (inactive) | 16.2 µM (inactive) | 14.2 µM (inactive) | 13.1 µM (inactive) | 17.1 µM (inactive) | 4.74 µM (inactive) | 11.1 µM (inactive) | 15.1 µM (inactive) | 15 µM | 13.3 µM (inactive)
CC1CCCN(CP(=O)(c2ccccc2)c2ccccc2)C1 (stereo not given) | > 100 µM (inactive) | > 100 µM (inactive) | > 100 µM (inactive) | > 100 µM (inactive) | > 100 µM (inactive) | > 100 µM (inactive) | > 100 µM (inactive) | > 100 µM (inactive) | > 100 µM (inactive) | > 100 µM (inactive) | > 100 µM (inactive) | > 100 µM (inactive) | > 100 µM (inactive) | > 100 µM (inactive) | > 100 µM (inactive) | > 100 µM (inactive) | > 100 µM (inactive) | > 100 µM (inactive) | > 100 µM | > 100 µM (inactive)
Nc1ncnc2c1ncn2[C@@H]1O[C@H](C(=O)O)[C@@H](O)[C@H]1O [5'-CARBOXY ADENOSINE] | > 100 µM (inactive) | > 100 µM (inactive) | > 100 µM (inactive) | > 100 µM (inactive) | > 100 µM (inactive) | > 100 µM (inactive) | > 100 µM (inactive) | > 100 µM (inactive) | > 100 µM (inactive) | > 100 µM (inactive) | > 100 µM (inactive) | > 100 µM (inactive) | > 100 µM (inactive) | > 100 µM (inactive) | > 100 µM (inactive) | > 100 µM (inactive) | > 100 µM (inactive) | > 100 µM (inactive) | > 100 µM | > 100 µM (inactive)
